# Molecular target: PRMT5-MEP50 enzyme complex (Homo sapiens (Human), UniProt O14744)
# Test: PRMT5 enzyme activity in vitro assay (methylation of histone H4R3, ELISA absorbance at 450 nm)
# Assay type: biochemical
# Details: SAM, histone H4 peptide, room temperature 2 hours, 8 points from 10 μM to 0.128 nM
# Procedure, shortened: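 IC50 was derived from ELISA absorbance at 450 nm, using primary and HRP antibodies against H4R3 methylation on immobilised histone H4 peptide (residues 1-20). Compounds (10 μM to 0.128 nM, 8 points, 1:5) were incubated 2 h at room temperature with the PRMT5-MEP50 complex and SAM, diluted to 5 μg/mL and 2 μM respectively.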
# PRMT5-MEP50 enzyme complex, sequence (O14744 2-637): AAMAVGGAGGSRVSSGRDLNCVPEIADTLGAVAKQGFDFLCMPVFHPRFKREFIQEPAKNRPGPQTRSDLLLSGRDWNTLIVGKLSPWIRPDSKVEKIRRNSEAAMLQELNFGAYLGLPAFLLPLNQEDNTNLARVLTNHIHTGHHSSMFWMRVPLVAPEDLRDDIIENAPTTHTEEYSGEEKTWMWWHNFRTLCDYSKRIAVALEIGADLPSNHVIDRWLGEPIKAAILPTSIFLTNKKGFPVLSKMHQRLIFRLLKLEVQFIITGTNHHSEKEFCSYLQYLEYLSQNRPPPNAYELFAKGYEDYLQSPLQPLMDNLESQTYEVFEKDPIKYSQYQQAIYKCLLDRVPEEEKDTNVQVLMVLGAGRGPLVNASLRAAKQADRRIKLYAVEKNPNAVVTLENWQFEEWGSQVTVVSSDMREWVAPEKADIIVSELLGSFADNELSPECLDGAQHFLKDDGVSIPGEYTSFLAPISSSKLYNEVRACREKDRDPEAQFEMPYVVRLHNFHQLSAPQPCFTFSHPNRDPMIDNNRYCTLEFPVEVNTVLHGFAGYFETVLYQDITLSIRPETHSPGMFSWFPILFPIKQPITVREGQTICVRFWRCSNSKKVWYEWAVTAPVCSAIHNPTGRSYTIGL
# PRMT5-MEP50 enzyme complex, sequence (Q9BQA1 2-342 partner): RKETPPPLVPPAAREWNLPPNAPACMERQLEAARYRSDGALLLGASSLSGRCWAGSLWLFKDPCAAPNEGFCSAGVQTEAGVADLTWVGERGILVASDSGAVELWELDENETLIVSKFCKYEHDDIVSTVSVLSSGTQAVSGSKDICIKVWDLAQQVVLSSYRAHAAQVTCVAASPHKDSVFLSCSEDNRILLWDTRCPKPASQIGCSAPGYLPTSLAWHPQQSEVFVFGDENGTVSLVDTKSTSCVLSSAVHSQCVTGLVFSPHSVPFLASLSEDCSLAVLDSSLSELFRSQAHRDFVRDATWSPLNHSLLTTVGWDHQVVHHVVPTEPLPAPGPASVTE
row,IC50,Compound
1,100 to 1000 nM,"CN1CCN(C[C@H](O)CN2CCc3ccccc3C2)C(=O)c2ccc(OC3CCN(C4CCOC4)CC3)cc21 (stereo partly drawn) [Example 128, 4-[(2R)-3-(3,4-dihydro-1H-isoquinolin-2-yl)-2-hydroxy-propyl]-1-methyl-8-[(1-tetrahydrofuran-3-yl-4-piperidyl)oxy]-2,3-dihydro-1,4-benzodiazepin-5-one]"
2,100 to 1000 nM,"CC1(C)CN(C[C@H](O)CN2CCc3ccccc3C2)C(=O)c2ccc(C(=O)N3CC4CC3CO4)cc2O1 (stereo partly drawn) [Example 204, 4-[(2R)-3-(3,4-dihydro-1H-isoquinolin-2-yl)-2-hydroxy-propyl]-2,2-dimethyl-8-(2-oxa-5-azabicyclo[2.2.1]heptan-5-carbonyl)-3H-1,4-benzoxazepin-5-one]"
3,1 to 100 nM,"CC1(CN2CCC(Oc3ccc4c(c3)OCCN(C[C@H](O)CN3CCc5ccccc5C3)C4=O)CC2)COC1 [Example 165, 4-[(2R)-3-(3,4-dihydro-1H-isoquinolin-2-yl)-2-hydroxypropyl]-8-[[1-[(3-methyloxetan-3-yl)methyl]-4-piperidyl]oxy]-2,3-dihydro-1,4-benzoxazepin-5-one]"
4,100 to 1000 nM,"CN1CCC(COc2ccc3c(c2)OCCN(C[C@H](O)CN2CCc4ccccc4C2)C3=O)CC1 [Example 102, 4-[(2R)-3-(3,4-dihydro-1H-isoquinolin-2-yl)-2-hydroxy-propyl]-8-[(1-methyl-4-piperidyl)methoxy]-2,3-dihydro-1,4-benzoxazepin-5-one]"
5,1 to 100 nM,"CCN1CCN(C[C@H](O)CN2CCc3ccccc3C2)C(=O)c2ccc(Br)cc21 [Example 157, 8-bromo-4-[(2R)-3-(3,4-dihydro-1H-isoquinolin-2-yl)-2-hydroxy-propyl]-1-ethyl-2,3-dihydro-1,4-benzodiazepin-5-one]"
6,100 to 1000 nM,"N#CN1CCC(Oc2ccc3c(c2)OCCN(C[C@H](O)CN2CCc4ccccc4C2)C3=O)CC1 [Example 166, 4-[[4-[(2R)-3-(3,4-dihydro-1H-isoquinolin-2-yl)-2-hydroxypropyl]-5-oxo-2,3-dihydro-1,4-benzoazepin-8-yl]oxy]piperidine-1-carbonitrile]"
7,1 to 100 nM,"CN(C1CCC(Oc2ccc3c(c2)OCCN(C[C@H](O)CN2CCc4ccccc4C2)C3=O)CC1)C1COC1 (stereo partly drawn) [Example 198, 4-[(2R)-3-(3,4-dihydro-1H-isoquinolin-2-yl)-2-hydroxypropyl]-8-[4-[methyl(oxetan-3-yl)amino]cyclohexoxy]-2,3-dihydro-1,4-benzoxazepin-5-one]"
8,100 to 1000 nM,"CCN1CC[C@@H](Oc2ccc3c(c2)OCCN(C[C@H](O)CN2CCc4ccccc4C2)C3=O)C1 [Example 99, 4-[(2R)-3-(3,4-dihydro-1H-isoquinolin-2-yl)-2-hydroxy-propyl]-8-[(3R)-1-ethylpyrrolidin-3-yl]oxy-2,3-dihydro-1,4-benzoxazepin-5-one]"
9,100 to 1000 nM,"CN1CCN(C[C@H](O)CN2CCc3ccccc3C2)C(=O)c2ccc(OCc3ccc(F)cn3)cc21 [Example 139, 4-[(2R)-3-(3,4-dihydro-1H-isoquinolin-2-yl)-2-hydroxy-propyl]-8-[(5-fluoro-2-pyridyl)methoxy]-1-methyl-2,3-dihydro-1,4-benzodiazepin-5-one]"
10,1 to 100 nM,"CC(=O)N1CC[C@@H](Oc2ccc3c(c2)OCCN(C[C@H](O)CN2CCc4ccccc4C2)C3=O)C1 [Example 81, 8-[(3R)-1-acetylpyrrolidin-3-yl]oxy-4-[(2R)-3-(3,4-dihydro-1H-isoquinolin-2-yl)-2-hydroxy-propyl]-2,3-dihydro-1,4-benzoxazepin-5-one]"
11,1000 to 10000 nM,"O=C1c2ccc(CN3CCCC(CO)C3)cc2OCCN1C[C@H](O)CN1CCc2ccccc2C1 (stereo partly drawn) [Example 37, 4-[(2R)-3-(3,4-dihydro-1H-isoquinolin-2-yl)-2-hydroxy-propyl]-8-[[3-(hydroxymethyl)-1-piperidyl]methyl]-2,3-dihydro-1,4-benzoxazepin-5-one]"
12,100 to 1000 nM,"O=C(c1ccc2c(c1)OCCN(C[C@H](O)CN1CCc3ccccc3C1)C2=O)N1CCC(F)CC1 [Example 184, 4-[(2R)-3-(3,4-dihydro-1H-isoquinolin-2-yl)-2-hydroxy-propyl]-8-(4-fluoropiperidine-1-carbonyl)-2,3-dihydro-1,4-benzoxazepin-5-one]"
13,100 to 1000 nM,"COC1CN(Cc2ccc3c(c2)OCCN(C[C@H](O)CN2CCc4ccccc4C2)C3=O)C1 [Example 29, 4-[(2R)-3-(3,4-dihydro-1H-isoquinolin-2-yl)-2-hydroxy-propyl]-8-[(3-methoxyazetidin-1-yl)methyl]-2,3-dihydro-1,4-benzoxazepin-5-one]"
14,100 to 1000 nM,"COC(=O)N1CC(Oc2ccc3c(c2)OCCN(C[C@H](O)CN2CCc4ccccc4C2)C3=O)C1 [Example 86, methyl 3-[[4-[(2R)-3-(3,4-dihydro-1H-isoquinolin-2-yl)-2-hydroxy-propyl]-5-oxo-2,3-dihydro-1,4-benzoxazepin-8-yl]oxy]azetidin-1-carboxylate]"
15,1 to 100 nM,"CC1(C)CN(C[C@H](O)CN2CCc3ccccc3C2)C(=O)c2ccc(OC3CN(C=O)C3)cc2O1 [Example 168, 3-[[4-[(2R)-3-(3,4-dihydro-1H-isoquinolin-2-yl)-2-hydroxy-propyl]-2,2-dimethyl-5-oxo-3H-1,4-benzoxazepin-8-yl]oxy]azetidin-1-carbaldehyde]"
16,100 to 1000 nM,"O=C1c2ccc(OCc3cccnc3)cc2OCCN1C[C@H](O)CN1CCc2ccccc2C1 [Example 56, 4-[(2R)-3-(3,4-dihydro-1H-isoquinolin-2-yl)-2-hydroxy-propyl]-8-(3-pyridylmethoxy)-2,3-dihydro-1,4-benzoxazepin-5-one]"
17,100 to 1000 nM,"Cc1c(-c2ccc3c(c2)OCCN(C[C@H](O)CN2CCc4ccccc4C2)C3=O)cnn1C [Example 233, 4-[(2R)-3-(3,4-dihydro-1H-isoquinolin-2-yl)-2-hydroxy-propyl]-8-(1,5-dimethylpyrazol-4-yl)-2,3-dihydro-1,4-benzoxazepin-5-one]"
18,100 to 1000 nM,"CC1(C)CN(C[C@H](O)CN2CCc3ccccc3C2)C(=O)c2ccc(CN3CCCC3)cc2O1 [Example 179, 4-[(2R)-3-(3,4-dihydro-1H-isoquinolin-2-yl)-2-hydroxy-propyl]-2,2-dimethyl-8-(pyrrolidin-1-ylmethyl)-3H-1,4-benzoxazepin-5-one]"
19,1 to 100 nM,"CN1CCN(C[C@H](O)CN2CCc3ccccc3C2)C(=O)c2ccc(C3=CCN(C(=O)OC(C)(C)C)CC3)cc21 [Example 120, tert-butyl 4-[4-[(2R)-3-(3,4-dihydro-1H-isoquinolin-2-yl)-2-hydroxy-propyl]-1-methyl-5-oxo-2,3-dihydro-1,4-benzodiazepin-8-yl]-3,6-dihydro-2H-pyridine-1-carboxylate]"
20,100 to 1000 nM,"CC1(C)CN(C[C@H](O)CN2CCc3ccccc3C2)C(=O)c2ccc(C(=O)N3CCN4CCCC4C3)cc2O1 (stereo partly drawn) [Example 210, 8-(3,4,6,7,8,8a-hexahydro-1H-pyrrolo[1,2-a]pyrazine-2-carbonyl)-4-[(2R)-3-(3,4-dihydro-1H-isoquinolin-2-yl)-2-hydroxy-propyl]-2,2-dimethyl-3H-1,4-benzoxazepin-5-one]"
21,100 to 1000 nM,"O=C(c1ccc2c(c1)OCCN(C[C@H](O)CN1CCc3ccccc3C1)C2=O)N1CCC(C(F)(F)F)CC1 [Example 186, 4-[(2R)-3-(3,4-dihydro-1H-isoquinolin-2-yl)-2-hydroxy-propyl]-8-[4-(trifluoromethyl)piperidine-1-carbonyl]-2,3-dihydro-1,4-benzoxazepin-5-one]"
22,100 to 1000 nM,"CCN1CCOC(COc2ccc3c(c2)OCCN(C[C@H](O)CN2CCc4ccccc4C2)C3=O)C1 (stereo partly drawn) [Example 105, 4-[(2R)-3-(3,4-dihydro-1H-isoquinolin-2-yl)-2-hydroxy-propyl]-8-[(4-ethylmorpholin-2-yl)methoxy]-2,3-dihydro-1,4-benzoxazepin-5-one]"
23,1 to 100 nM,"CCN1CCCC(Oc2ccc3c(c2)OCCN(C[C@H](O)CN2CCc4ccccc4C2)C3=O)C1 (stereo partly drawn) [Example 69, 4-[(2R)-3-(3,4-dihydro-1H-isoquinolin-2-yl)-2-hydroxy-propyl]-8-[(1-ethyl-3-piperidyl)oxy]-2,3-dihydro-1,4-benzoxazepin-5-one]"
24,1 to 100 nM,"CC(C)(C)OC(=O)N1CCC(Oc2ccc3c(c2)OCCN(C[C@H](O)CN2CCc4ccccc4C2)C3=O)CC1 [Example 77, tert-butyl 4-[[4-[(2R)-3-(3,4-dihydro-1H-isoquinolin-2-yl)-2-hydroxy-propyl]-5-oxo-2,3-dihydro-1,4-benzoxazepin-8-yl]oxy]piperidine-1-carboxylate]"
25,100 to 1000 nM,"COC[C@@H]1CCCN1Cc1ccc2c(c1)OCCN(C[C@H](O)CN1CCc3ccccc3C1)C2=O [Example 49, 4-[(2R)-3-(3,4-dihydro-1H-isoquinolin-2-yl)-2-hydroxy-propyl]-8-[[(2S)-2-(methoxymethyl)pyrrolidin-1-yl]methyl]-2,3-dihydro-1,4-benzoxazepin-5-one]"
26,100 to 1000 nM,"CN1CCCC(Oc2ccc3c(c2)OCCN(C[C@H](O)CN2CCc4ccccc4C2)C3=O)C1 (stereo partly drawn) [Example 68, 4-[(2R)-3-(3,4-dihydro-1H-isoquinolin-2-yl)-2-hydroxy-propyl]-8-[(1-methyl-3-piperidyl)oxy]-2,3-dihydro-1,4-benzoxazepin-5-one]"
27,100 to 1000 nM,"O=C1c2ccc(OCc3cc(Cl)nc(Cl)c3)cc2OCCN1C[C@H](O)CN1CCc2ccccc2C1 [Example 59, 8-[(2,6-dichloro-4-pyridyl)methoxy]-4-[(2R)-3-(3,4-dihydro-1H-isoquinolin-2-yl)-2-hydroxy-propyl]-2,3-dihydro-1,4-benzoxazepin-5-one]"

row,Compound,IC50
1,"CCN1CC=C(c2ccc3c(c2)OCCN(C[C@H](O)CN2CCc4ccccc4C2)C3=O)CC1 [Example 18, 4-[(2R)-3-(3,4-dihydro-1H-isoquinolin-2-yl)-2-hydroxy-propyl]-8-(1-ethyl-3,6-dihydro-2H-pyridin-4-yl)-2,3-dihydro-1,4-benzoxazepin-5-one]",100 to 1000 nM

# From patent publication US11111237B2, “Bicyclic compound and use thereof” (SK BIOPHARMACEUTICALS CO., LTD., priority 2019, dated 2021)
